According to patent publication US10633350B2, “Diphenyl derivatives and uses thereof” (NOVARTIS AG, priority 2017, dated 2020):
Read-outs that look alike come from different tables or passages of the source.

What was measured:
Akt = Akt activation assay (Phospho-AKT (Ser473) antibody staining) in U2OS GFP-FoxO3a H212R reporter cells; assay type: cell-based; settings: Homo sapiens, 0.5 h, serum starved overnight, 30 minutes compound treatment, total cellular intensity of Phospho-Akt (Ser473) antibody staining, AC50 = concentration that results in 50% activation or inhibition
Protocol: (§1) Phosphorylation of Akt on S473 and FoxO3a nuclear to cytoplasmic translocation were used as readouts of PI3K/Akt/mTOR pathway activation downstream of growth factor signaling.
(§2) Reporter cell line. U2OS GFP-FoxO3a H212R reporter cell line was established by transducing U2OS cells with the retroviral plasmid pLEGFP-C1 containing FoxO3a H212R transgene and selecting for G418 resistant clones.
(§3) Reporter assay. U2OS GFP-FoxO3a H212R cells were plated in 384-well plates at 4000 cells per well in 30 microliters of McCoy's 5A medium containing 10% FBS. On day 1 the cells were washed with serum free medium and serum starved overnight. On day 2 the cells were treated with different doses of the compounds for 30 minutes, fixed with 4% Paraformaldehyde for 1 hour and stained with Phospho-AKT (Ser473) antibody (Cell Signaling Technology, catalog #4060) overnight at 4° C. After nuclei staining with Hoechst 33342 (Life Technologies, catalog # H3570) the plates were imaged with InCell 2000 (GE Healthcare Bio-Sciences). FoxO3a inhibition activity is calculated as the ratio of nuclear to cytosolic GFP intensity in percent. Akt activation is measured as the total cellular intensity of Phospho-Akt antibody staining in percent. DMSO control is set as 0% activity.

FoxO3a = FoxO3a inhibition assay (GFP-FoxO3a nuclear to cytoplasmic translocation) in U2OS GFP-FoxO3a H212R reporter cells; assay type: cell-based; settings: serum starved overnight, 30 minutes compound treatment, ratio of nuclear to cytosolic GFP intensity, AC50 = concentration that results in 50% activation or inhibition, read-out: FoxO AC50
Protocol: as §1, §2, §3

Compound | AC50 (Akt) | AC50 (FoxO3a; Homo sapiens, 0.5 h) | AC50 (FoxO3a)
Cc1cc(C(N)=O)nn1-c1ccc(Cc2ccc(-c3ccc(C(=O)N4CCNCC4)nc3)cc2)cc1 [Example 26, 5-methyl-1-(4-(4-(6-(piperazine-1-carbonyl)pyridin-3-yl)benzyl)phenyl)-1H-pyrazole-3-carboxamide] | 480 nM | 75 nM | –
Cc1cc(C(N)=O)nn1-c1ccc(Cc2ccc(-c3ccc(CN4CCCC4)nc3)cc2)cc1 [Example 5-5, 5-methyl-1-(4-(4-(6-(pyrrolidin-1-ylmethyl)pyridin-3-yl)benzyl)phenyl)-1H-pyrazole-3-carboxamide] | 426 nM | 152 nM | –
Cc1cc(C(N)=O)nn1-c1ccc(C(C)(C)c2ccc(C3=CCC(=O)CC3)cc2)cc1 [Example 7, 5-methyl-1-(4-(2-(4′-oxo-2′,3′,4′,5′-tetrahydro-[1,1′-biphenyl]-4-yl)propan-2-yl)phenyl)-1H-pyrazole-3-carboxamide] | 276 nM | 58 nM | –
Cc1cc(C(N)=O)nn1-c1ccc(Cc2ccc(-c3ccc(C(=O)N4CCNCC4)cc3)cc2)cc1 [Example 24, 5-methyl-1-(4-((4′-(piperazine-1-carbonyl)-[1,1′-biphenyl]-4-yl)methyl)phenyl)-1H-pyrazole-3-carboxamide] | 155 nM | 33 nM | –
Cc1cc(C(N)=O)nn1-c1ccc(Cc2ccc(-c3ccc4c(c3)CCNC4)cc2)cc1 [Example 3-14, 5-methyl-1-(4-(4-(1,2,3,4-tetrahydroisoquinolin-6-yl)benzyl)phenyl)-1H-pyrazole-3-carboxamide] | 161 nM | 53 nM | –
Cc1cc(C(N)=O)nn1-c1ccc(Cc2ccc(-c3ccc(S(C)(=O)=O)cc3)cc2)cc1 [Example 3-6, 5-methyl-1-(4-((4′-(methylsulfonyl)-[1,1′-biphenyl]-4-yl)methyl)phenyl)-1H-pyrazole-3-carboxamide] | 66 nM | 28 nM | –
Cc1cc(C(N)=O)nn1-c1ccc(C(C)(C)c2ccc(-c3ccc4[nH]ncc4c3)cc2)cc1 [Example 6-4, 1-(4-(2-(4-(1H-indazol-5-yl)phenyl)propan-2-yl)phenyl)-5-methyl-1H-pyrazole-3-carboxamide] | 1040 nM | 517 nM | –
Cc1nnc(-c2ccc(-c3ccc(C(C)(C)c4ccc(-n5nc(C(N)=O)cc5C)cc4)cc3)cc2)o1 [Example 6-6, 5-methyl-1-(4-(2-(4′-(5-methyl-1,3,4-oxadiazol-2-yl)-[1,1′-biphenyl]-4-yl)propan-2-yl)phenyl)-1H-pyrazole-3-carboxamide] | 842 nM | 283 nM | –
Cc1nc(C(N)=O)nn1-c1ccc(C(C)(C)c2ccc(-c3ccc4scnc4c3)cc2)cc1 [Example 13-7] | 504 nM | 159 nM | –
Cc1nc(C(N)=O)nn1-c1ccc(Cc2ccc(-c3ccc(CN4CCC(C)(O)CC4)cc3)cc2)cc1 [Example 39-6] | 5 nM | 9 nM | –
Cc1nnc(-c2ccc(-c3ccc(Cc4ccc(-n5nc(C(N)=O)cc5C)cc4)cc3)cc2)o1 [Example 3-9, 5-methyl-1-(4-((4′-(5-methyl-1,3,4-oxadiazol-2-yl)-[1,1′-biphenyl]-4-yl)methyl)phenyl)-1H-pyrazole-3-carboxamide] | 63 nM | 29 nM | –
Cc1nc(C(N)=O)nn1-c1ccc(Cc2ccc(-c3cccnc3)cc2)cc1 [Example 15-2] | 888 nM | 277 nM | –
Cc1cc(C(N)=O)nn1-c1ccc(Cc2ccc(C3CCN(C)C3)cc2)cc1 (single isomer, unassigned) [Example 5-1, 5-methyl-1-(4-(4-(1-methylpyrrolidin-3-yl)benzyl)phenyl)-1H-pyrazole-3-carboxamide] | 1320 nM | – | 295 nM
CCN(CC)Cc1ccc(-c2ccc(Cc3ccc(-n4nc(C(N)=O)cc4C)cc3)cc2)cc1 [Example 3-2, 1-(4-((4′-((diethylamino)methyl)-[1,1′-biphenyl]-4-yl)methyl)phenyl)-5-methyl-1H-pyrazole-3-carboxamide] | 341 nM | 236 nM | –
Cc1nc(C(N)=O)nn1-c1ccc(Cc2ccc(-c3ccc(C(C)(C)CO)cn3)cc2)cc1 [Example 56, 1-(4-(4-(5-(1-hydroxy-2-methylpropan-2-yl)pyridin-2-yl)benzyl)phenyl)-5-methyl-1H-1,2,4-triazole-3-carboxamide] | 366 nM | 156 nM | –
Cc1nc(C(N)=O)nn1-c1ccc(Cc2ccc(N3CCC(C(C)(C)O)CC3)cc2)cc1 [Example 49, 1-(4-(4-(4-(2-hydroxypropan-2-yl)piperidin-1-yl)benzyl)phenyl)-5-methyl-1H-1,2,4-triazole-3-carboxamide] | 840 nM | 273 nM | –

Compound | AC50 (Akt) | AC50 (FoxO3a; Homo sapiens, 0.5 h) | AC50 (FoxO3a)
Cc1nc(C(N)=O)nn1-c1ccc(Cc2ccc(-c3ccc(CN4CCC[C@@H]4CO)cc3)cc2)cc1 [Example 38-5] | 27 nM | 26 nM | –
Cc1cc(C(N)=O)nn1-c1ccc(Cc2ccc(-c3ccc([C@@H]4CCCN4C)cc3)cc2)cc1 [Example 5-8, (S)-5-methyl-1-(4-((4′-(1-methylpyrrolidin-2-yl)-[1,1′-biphenyl]-4-yl)methyl)phenyl)-1H-pyrazole-3-carboxamide] | 145 nM | 76 nM | –
Cc1nc(C(N)=O)nn1-c1ccc(Cc2ccc(-c3ccc(OC4CCN(C)CC4)cc3)cc2)cc1 [Example 47, 5-methyl-1-(4-((4′-((1-methylpiperidin-4-yl)oxy)-[1,1′-biphenyl]-4-yl)methyl)phenyl)-1H-1,2,4-triazole-3-carboxamide] | 99 nM | 93 nM | –
Cc1nc(C(N)=O)nn1-c1ccc(Cc2ccc(-c3cc(C(C)(C)O)ccn3)cc2)cc1 [Example 53, 1-(4-(4-(4-(2-hydroxypropan-2-yl)pyridin-2-yl)benzyl)phenyl)-5-methyl-1H-1,2,4-triazole-3-carboxamide] | 8230 nM | 2420 nM | –
Cc1cc(C(N)=O)nn1-c1ccc(Cc2ccc(-c3ccncc3)cc2)cc1 [Example 3-5, 5-methyl-1-(4-(4-(pyridin-4-yl)benzyl)phenyl)-1H-pyrazole-3-carboxamide] | 156 nM | 61 nM | –
Cc1nc(C(N)=O)nn1-c1ccc(Cc2ccc(-c3ccc(CC4C[C@@H]5CN(C)C[C@@H]5C4)cc3)cc2)cc1 (stereo partly drawn) [Example 41, 5-methyl-1-(4-((4′-(((3aR,6aS)-2-methyloctahydrocyclopenta[c]pyrrol-5-yl)methyl)-[1,1′-biphenyl]-4-yl)methyl)phenyl)-1H-1,2,4-triazole-3-carboxamide] | 91 nM | 114 nM | –
Cc1cc(C(N)=O)nn1-c1ccc(C(C)(C)c2ccc(-c3ccc(C4(CN)COC4)cc3)cc2)cc1 [Example 11, 1-(4-(2-(4′-(3-(aminomethyl)oxetan-3-yl)-[1,1′-biphenyl]-4-yl)propan-2-yl)phenyl)-5-methyl-1H-pyrazole-3-carboxamide] | 1190 nM | 607 nM | –
Cc1cc(C(N)=O)nn1-c1ccc(C(C)(C)c2ccc(-c3ccccn3)cc2)cc1 [Example 10, 5-methyl-1-(4-(2-(4-(pyridin-2-yl)phenyl)propan-2-yl)phenyl)-1H-pyrazole-3-carboxamide] | 733 nM | 470 nM | –
Cc1nc(C(N)=O)nn1-c1ccc(Cc2ccc(C#CC3(O)CCCCC3)cc2)cc1 [Example 55, 1-(4-(4-((1-hydroxycyclohexyl)ethynyl)benzyl)phenyl)-5-methyl-1H-1,2,4-triazole-3-carboxamide] | 1290 nM | 96 nM | –
Cc1cc(C(N)=O)nn1-c1ccc(Cc2ccc(-c3ccc4c(c3)CN(C)C4)cc2)cc1 [Example 3-13, 5-methyl-1-(4-(4-(2-methylisoindolin-5-yl)benzyl)phenyl)-1H-pyrazole-3-carboxamide] | 167 nM | 57 nM | –
Cc1cc(C(N)=O)nn1-c1ccc(Cc2ccc(-c3ccc(C(=O)NC4CNC4)cc3)cc2)cc1 [Example 30, 1-(4-((4′-(azetidin-3-ylcarbamoyl)-[1,1′-biphenyl]-4-yl)methyl)phenyl)-5-methyl-1H-pyrazole-3-carboxamide] | 802 nM | 237 nM | –
Cc1cc(C(N)=O)nn1-c1ccc(Cc2ccc(C3=CCN(C)CC3)cc2)cc1 [Example 3-15, 5-methyl-1-(4-(4-(1-methyl-1,2,3,6-tetrahydropyridin-4-yl)benzyl)phenyl)-1H-pyrazole-3-carboxamide] | 83 nM | 31 nM | –
Cc1nc(C(N)=O)nn1-c1ccc(C(C)(C)c2ccc(-c3ccc(N4CCCC4)nc3)cc2)cc1 [Example 13-14] | 1170 nM | 386 nM | –
Cc1nc(C(N)=O)nn1-c1ccc(Cc2ccc(-c3ccc(CN4CCN(C(C)(C)C)CC4)cc3)cc2)cc1 [Example 39-17] | – | 85 nM | –
Cc1cc(C(N)=O)nn1-c1ccc(Cc2ccc(-c3cnc(C(C)(C)O)nc3)cc2)cc1 [Example 60, 1-(4-(4-(2-(2-hydroxypropan-2-yl)pyrimidin-5-yl)benzyl)phenyl)-5-methyl-1H-pyrazole-3-carboxamide] | – | 83 nM | –
